Publication PMC2527972 (Science (New York, N.Y.), 2008)

Molecular target: T1, MetNI (Escherichia coli, UniProt P30750)
T1 sequence (P30750 1-343): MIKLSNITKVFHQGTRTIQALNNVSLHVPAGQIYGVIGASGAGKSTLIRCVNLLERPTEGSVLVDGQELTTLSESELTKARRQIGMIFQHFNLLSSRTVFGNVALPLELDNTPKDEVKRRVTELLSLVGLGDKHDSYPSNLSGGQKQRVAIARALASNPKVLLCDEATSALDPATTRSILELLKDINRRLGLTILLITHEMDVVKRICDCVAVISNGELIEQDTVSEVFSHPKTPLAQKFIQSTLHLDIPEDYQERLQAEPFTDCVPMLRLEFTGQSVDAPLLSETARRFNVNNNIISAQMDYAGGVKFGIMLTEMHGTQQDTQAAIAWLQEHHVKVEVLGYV
T1 sequence (P31547 1-217 partner): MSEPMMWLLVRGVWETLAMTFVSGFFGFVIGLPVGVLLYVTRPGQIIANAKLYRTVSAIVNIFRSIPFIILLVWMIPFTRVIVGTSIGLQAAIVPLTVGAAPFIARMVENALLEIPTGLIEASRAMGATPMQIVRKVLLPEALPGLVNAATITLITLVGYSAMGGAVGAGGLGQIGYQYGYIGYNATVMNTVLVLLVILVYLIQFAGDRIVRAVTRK
Assay: ATPase activity, phosphate production assay
Assay type: biochemical

`CSCC[C@H](N)C(=O)O` [L-methionine] gave an IC50 of about 30 µM.
